Earlier results in patent publication US6506055B1, “Method of reducing dentin sensitivity and compositions therefor” (MCG Research Institute, priority 1999, dated 2003).

Conditions: 3% w/v applied to dentin; both in vitro and in vivo

## O=C([O-])C(=O)O.[K+] [monopotassium-monohydrogen oxalate]
  Hydraulic conductance of dentin: reduced
